Laboratory results as given in article PMC9687610, “Adenosine-Mimicking Derivatives of 3-Aminopyrazine-2-Carboxamide: Towards Inhibitors of Prolyl-tRNA Synthetase with Antimycobacterial Activity” (Biomolecules, 2022).
Converted amounts (≈) assume the structure as drawn. Read-outs that look alike come from different tables or passages of the source.

What was measured:
[1] = system: Enterococcus faecalis CCM 4224 (ATCC 29212); experiment: Antibacterial microdilution broth (EUCAST), EF; assay type: cell-based; conditions: Enterococcus faecalis
[2] = system: Mycobacterium tuberculosis H37Rv CNCTC My 331/88 (ATCC 27294); experiment: MABA microdilution, Mtb H37Rv; assay type: cell-based
[3] = system: Mycobacterium smegmatis DSM 43465 (ATCC 607); experiment: Microplate Alamar Blue Assay (MABA), M. smegmatis; assay type: cell-based; conditions: for MIC: Mycolicibacterium smegmatis, read-out: M. smegmatis MIC
[4] = system: Mycobacterium tuberculosis H37Ra ITM-M006710 (ATCC 9431); experiment: Microplate Alamar Blue Assay (MABA), Mtb H37Ra; assay type: cell-based; conditions: Middlebrook 7H9 broth pH 6.6, resazurin after 120 h; for MIC: Mycobacterium tuberculosis, 120 h, pH 6.6, MABA, read-out: Mtb H37Ra MIC
[5] = system: M. aurum DSM 43999 (ATCC 23366); experiment: Microplate Alamar Blue Assay (MABA), M. aurum; assay type: cell-based; conditions: Mycolicibacterium aurum; MABA, resazurin after 72 h; read-out: M. aurum MIC
[6] = system: Pseudomonas aeruginosa CCM 3955 (ATCC 27853); experiment: Antibacterial microdilution broth (EUCAST), PA; assay type: cell-based; conditions: Pseudomonas aeruginosa; read after 24 h; read-out: PA MIC
[7] = system: Staphylococcus aureus subsp. aureus methicillin-resistant (MRSA) CCM 4750 (ATCC 43300); experiment: Antibacterial microdilution broth (EUCAST), MRSA; assay type: cell-based; conditions: Staphylococcus aureus; read after 24 h; read-out: MRSA MIC
[8] = system: Lichtheimia corymbifera CCM 8077; experiment: Antifungal microdilution broth (EUCAST), LC; assay type: cell-based; conditions: Lichtheimia corymbifera, CCM8077; read after 24 h; read-out: LC MIC
[9] = system: Candida krusei CCM 8271 (ATCC 6258); experiment: Antifungal microdilution broth (EUCAST), CK; assay type: cell-based; conditions: Pichia kudriavzevii; read after 24 h; read-out: CK MIC
[10] = system: Aspergillus flavus CCM 8363; experiment: Antifungal microdilution broth (EUCAST), AFla; assay type: cell-based; conditions: Aspergillus flavus, CCM8363; read after 24 h; read-out: AFla MIC
[11] = system: Acinetobacter baumannii DSM 30007 (ATCC 19606); experiment: Antibacterial microdilution broth (EUCAST), ACI; assay type: cell-based; conditions: Acinetobacter baumannii; read after 24 h; read-out: ACI MIC
[12] = system: Staphylococcus aureus subsp. aureus CCM 4223 (ATCC 29213); experiment: Antibacterial microdilution broth (EUCAST), SA; assay type: cell-based; conditions: Staphylococcus aureus; read after 24 h; read-out: SA MIC
[13] = system: Candida parapsilosis CCM 8260 (ATCC 22019); experiment: Antifungal microdilution broth (EUCAST), CP; assay type: cell-based; conditions: Lodderomyces parapsilosis; read after 24 h; read-out: CP MIC
[14] = system: HepG2 human hepatocellular carcinoma cells; experiment: In vitro HepG2 cytotoxicity (CellTiter 96); conditions: for IC50: Homo sapiens, HepG2, 24 h, read-out: HepG2 IC50, 24 h incubation, * limit = highest evaluated concentration (precipitation in medium), ** over the 1000 µM limit
[15] = system: Aspergillus fumigatus ATCC 204305; experiment: Antifungal microdilution broth (EUCAST), AF; assay type: cell-based; conditions: Aspergillus fumigatus, ATCC204305; read after 24 h; read-out: AF MIC
[16] = system: Escherichia coli CCM 3954 (ATCC 25922); experiment: Antibacterial microdilution broth (EUCAST), EC; assay type: cell-based; conditions: Escherichia coli; read after 24 h; read-out: EC MIC
[17] = system: Candida tropicalis CCM 8264 (ATCC 750); experiment: Antifungal microdilution broth (EUCAST), CT; assay type: cell-based; conditions: Candida tropicalis; read after 24 h; read-out: CT MIC
[18] = system: Staphylococcus epidermidis CCM 4418 (ATCC 12228); experiment: Antibacterial microdilution broth (EUCAST), SE; assay type: cell-based; conditions: read after 24 h, read-out: SE MIC
[19] = system: Candida albicans CCM 8320 (ATCC 24433); experiment: Antifungal microdilution broth (EUCAST), CA; assay type: cell-based; conditions: Candida albicans; read after 24 h; read-out: CA MIC
[20] = system: Trichophyton interdigitale CCM 8377 (ATCC 9533); experiment: Antifungal microdilution broth (EUCAST), TI; assay type: cell-based; conditions: Trichophyton interdigitale, 72 h, read-out: TI MIC
[21] = system: Klebsiella pneumoniae CCM 4415 (ATCC 10031); experiment: Antibacterial microdilution broth (EUCAST), KP; conditions: read after 24 h
Mtb laboratory ID MATI = conditions: Laboratory ID MATI, cited from earlier work; for Susceptibility: CLSI breakpoints 2021; for Minimum inhibitory concentration: tested and interpreted according to CLSI breakpoints in 2021
Mtb laboratory ID IZAK = conditions: Laboratory ID IZAK, cited from earlier work; for Susceptibility: CLSI breakpoints 2020; for Minimum inhibitory concentration: tested and interpreted according to CLSI breakpoints in 2020
[22] = Mycobacterium tuberculosis, read-out: Mtb H37Rv MIC
[23] = read after 24 h, read-out: EF MIC
[24] = virulent strain Mtb H37Rv and MDR isolates IZAK, MATI
[25] = Mycobacterium tuberculosis; read-out: Mtb H37Rv MIC

| Structure (SMILES) | MIC ([3]; MABA, resazurin after 48 h) [µg/mL] | MIC [4] [µg/mL] | MIC [5] [µg/mL] | MIC [6] [µM] | MIC [7] [µM] | MIC [8] [µM] | MIC [1, 23] [µM] | MIC [9] [µM] | MIC [10] [µM] | MIC [11] [µM] | MIC [12] [µM] | MIC [13] [µM] | IC50 [14] [µM] | MIC [15] [µM] | MIC [16] [µM] | MIC [17] [µM] | MIC [18] [µM] | MIC [19] [µM] | MIC [20] [µM] | KP MIC [21] [µM] | further results |
| --- | --- | --- | --- | --- | --- | --- | --- | --- | --- | --- | --- | --- | --- | --- | --- | --- | --- | --- | --- | --- | --- |
| O=C(O)c1cn(C2CC2)c2cc(N3CCNCC3)c(F)cc2c1=O [CIP, ciprofloxacin, reference compound] | 0.063 (≈ 0.19 µM) | 0.25 (≈ 0.754 µM) | 0.016 (≈ 0.0483 µM) |  |  |  |  |  |  |  |  |  |  |  |  |  |  |  |  |  | MIC ([1]; internal quality control, no visible growth, 24 h, read-out: MIC, visual detection): 1.02 µg/mL; MIC [2, 22]: 0.2 µg/mL (≈ 0.604 µM) |
| Cc1ccc(C(=O)Nc2nccnc2C(N)=O)cc1 [Compound 4] | ≥ 250 | 7.81 (≈ 30.5 µM) | ≥ 250 | > 500 | > 500 | > 500 | > 500 | > 500 | > 500 | > 500 | > 500 | > 500 | > 100 | > 500 | > 500 | > 500 | > 500 | > 500 | > 500 | > 500 | MIC [2, 22]: 6.25 µg/mL (≈ 24.4 µM); activity on Mtb H37Rv and both MDR strains (in words) [2, 24]: significant activity |
| NC(=O)c1nccnc1NC(=O)c1ccc(F)cc1 [Compound 12] | 250 (≈ 961 µM) | 31.2 (≈ 120 µM) | ≥ 500 | > 500 | > 500 | > 500 | > 500 | > 500 | > 500 | > 500 | > 500 | > 500 | > 250 | > 500 | > 500 | > 500 | > 500 | > 500 | > 500 | > 500 | MIC [2, 22]: 50 µg/mL (≈ 192 µM); activity on Mtb H37Rv and both MDR strains (in words) [2, 24]: significant activity |
| NC(=O)c1nccnc1NC(=O)c1ccc(Cl)cc1 [Compound 15] |  | 3.91 (≈ 14.1 µM) | ≥ 250 | > 500 | > 500 | > 125 | > 500 | > 125 | > 125 | > 500 | > 500 | > 125 | > 100 | > 125 | > 500 | > 125 | > 500 | > 125 | > 125 | > 500 | MIC [2, 22]: 6.25 µg/mL (≈ 22.6 µM); activity on Mtb H37Rv and both MDR strains (in words) [2, 24]: significant activity; activity against M. smegmatis (in words) [3]: high activity; MIC ([3]; 48 h): 3.91 µg/mL (≈ 14.1 µM) |
| NC(=O)c1nccnc1NC(=O)c1ccc(Br)cc1 [Compound 18] | 125 (≈ 389 µM) | 1.95 (≈ 6.07 µM) | ≥ 250 | > 500 | > 500 | > 125 | > 500 | > 125 | > 125 | > 500 | > 500 | > 125 | > 25 | > 125 | > 500 | > 125 | > 500 | > 125 | > 125 | > 500 | MIC [2, 22]: 6.25 µg/mL (≈ 19.5 µM); solubility in the testing medium (in words) ([14]; HepG2 cell culture medium): low solubility |
| O=c1[nH]c(-c2ccc(Cl)cc2)nc2nccnc12 [Compound 42] | ≥ 500 | ≥ 500 | ≥ 500 | > 125 | > 125 | > 125 | > 125 | > 125 | > 125 | > 125 | > 125 | > 125 | > 250 | > 125 | > 125 | > 125 | > 125 | > 125 | > 125 | > 125 | melting point: 306.5 to 307.9 °C |
| O=c1[nH]c(-c2ccc(Br)cc2)nc2nccnc12 [Compound 43] | ≥ 500 | 31.2 (≈ 103 µM) | ≥ 500 | > 125 | > 125 | > 125 | > 125 | > 125 | > 125 | > 125 | > 125 | > 125 | > 250 | > 125 | > 125 | > 125 | > 125 | > 125 | > 125 | > 125 | melting point: 315.4 to 317.4 °C |
| CC[C@@H](CO)NCCN[C@@H](CC)CO [EMB, ethambutol] |  | 0.5 (≈ 2.45 µM) |  |  |  |  |  |  |  |  |  |  |  |  |  |  |  |  |  |  | MIC [2, 25]: 0.39 µg/mL (≈ 1.91 µM); Susceptibility (Mtb laboratory ID MATI): sensitive; Minimum inhibitory concentration (Mtb laboratory ID MATI): 0.5 µg/mL (≈ 2.45 µM); Susceptibility (Mtb laboratory ID IZAK): sensitive; Minimum inhibitory concentration (Mtb laboratory ID IZAK): 0.5 µg/mL (≈ 2.45 µM) |
| NNC(=O)c1ccncc1 [INH, isoniazid] | 15.6 (≈ 114 µM) | 0.25 (≈ 1.82 µM) | 3.91 (≈ 28.5 µM) |  |  |  |  |  |  |  |  |  | > 1000 |  |  |  |  |  |  |  | MIC [2, 25]: 0.2 µg/mL (≈ 1.46 µM); Mtb H37Ra MIC ([4]; MABA): 0.25 to 0.5 µg/mL; Susceptibility (Mtb laboratory ID MATI): resistant |
| NC(=O)c1cnccn1 [PZA, pyrazinamide] |  |  |  |  |  |  |  |  |  |  |  |  |  |  |  |  |  |  |  |  | Susceptibility (Mtb laboratory ID MATI): resistant; Minimum inhibitory concentration (Mtb laboratory ID MATI): > 128 µg/mL; Susceptibility (Mtb laboratory ID IZAK): resistant; Minimum inhibitory concentration (Mtb laboratory ID IZAK): > 16 µg/mL |
| CO[C@H]1/C=C/O[C@@]2(C)Oc3c(C)c(O)c4c(O)c(c(/C=N/N5CCN(C)CC5)c(O)c4c3C2=O)NC(=O)/C(C)=C\C=C\[C@H](C)[C@H](O)[C@@H](C)[C@@H](O)[C@@H](C)[C@H](OC(C)=O)[C@@H]1C [RIF, rifampicin] | 12.5 (≈ 15.2 µM) | 0.003 (≈ 0.00365 µM) | 0.39 (≈ 0.474 µM) |  |  |  |  |  |  |  |  |  | > 500 |  |  |  |  |  |  |  | Susceptibility (Mtb laboratory ID MATI): resistant; Minimum inhibitory concentration (Mtb laboratory ID MATI): > 8 µg/mL; Susceptibility (Mtb laboratory ID IZAK): resistant; Minimum inhibitory concentration (Mtb laboratory ID IZAK): > 8 µg/mL |
| [H]/N=C(/N)N[C@H]1[C@H](O)[C@@H](O)[C@H](O[C@@H]2O[C@@H](C)[C@](O)(C=O)[C@H]2O[C@@H]2O[C@@H](CO)[C@H](O)[C@@H](O)[C@@H]2NC)[C@@H](N/C(N)=N\[H])[C@@H]1O [STM, streptomycin] |  | 0.5 (≈ 0.86 µM) |  |  |  |  |  |  |  |  |  |  |  |  |  |  |  |  |  |  | Susceptibility (Mtb laboratory ID MATI): resistant; Minimum inhibitory concentration (Mtb laboratory ID MATI): > 16 µg/mL; Susceptibility (Mtb laboratory ID IZAK): resistant; Minimum inhibitory concentration (Mtb laboratory ID IZAK): 4 µg/mL (≈ 6.88 µM) |
